Measurements published in PubChem BioAssay (NCI).
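Compound exposure: 48 hours, 5 concentrations, 96-well plates. At the GI50, growth is halved. The concentration for full growth arrest is given as TGI.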 Where a SMILES comes first, the peptide text is derived from it. The star is where a group is joined. ONb = O=[N+]([O-])c1ccc(CO*)cc1; Boc = CC(C)(C)OC(=O)*

Legend:
Assay in all cases: inhibition of tumour cell growth, NCI panel, 48 h
NCI/ADR-RES ovarian = test system: NCI/ADR-RES ovarian
CCRF-CEM leukemia = test system: CCRF-CEM leukemia
HOP-92 NSCLC = test system: HOP-92 NSCLC
IGROV1 ovarian = test system: IGROV1 ovarian
BT-549 breast = test system: BT-549 breast
OVCAR-4 ovarian = test system: OVCAR-4 ovarian
NCI-H522 lung = test system: NCI-H522 lung
HOP-62 NSCLC = test system: HOP-62 NSCLC
MCF7 breast = test system: MCF7 breast
NCI-H460 lung = test system: NCI-H460 lung

SMILES	TGI (NCI/ADR-RES ovarian) [µM]	TGI (CCRF-CEM leukemia) [µM]	TGI (HOP-92 NSCLC) [µM]	TGI (IGROV1 ovarian) [µM]	TGI (BT-549 breast) [µM]	TGI (OVCAR-4 ovarian) [µM]	TGI (NCI-H522 lung) [µM]	TGI (HOP-62 NSCLC) [µM]	TGI (MCF7 breast) [µM]	TGI (NCI-H460 lung) [µM]	GI50 (NCI/ADR-RES ovarian) [µM]	GI50 (NCI-H460 lung) [µM]	GI50 (HOP-92 NSCLC) [µM]	GI50 (BT-549 breast) [µM]	GI50 (OVCAR-4 ovarian) [µM]	GI50 (NCI-H522 lung) [µM]	GI50 (HOP-62 NSCLC) [µM]	GI50 (IGROV1 ovarian) [µM]
CCCCNC(=S)Nc1nc(C(=O)NNC(=S)NC2CCCCC2)cs1	> 100	> 100	> 100	> 100	> 100	> 100	> 100	> 100	> 100	–	–	–	–	–	–	–	–	–
CC(C)(C)c1cc(C2=NN(c3ccccc3)C(c3ccccc3)C2)cc(C(C)(C)C)c1O (stereo not given)	> 100	> 100	> 100	> 100	> 100	> 100	> 100	> 100	> 100	> 100	–	–	–	–	–	–	–	–
N#Cc1c(N)sc2c1-c1ccccc1OC2	> 100	36	> 100	> 100	> 100	88	–	> 100	> 100	> 100	–	–	–	–	–	–	–	–
N#CCCN(CCC#N)c1ccc(/C=C2\N=C(c3ccccc3)N(NC(N)=S)C2=O)cc1	> 100	> 100	> 100	> 100	> 100	> 100	–	> 100	> 100	> 100	–	–	–	–	–	–	–	–
COc1cc(/C=C/C(=O)c2c(C)nc3ccccc3c2C)ccc1OCCCOc1cc2c(cc1OC)C(=O)N1CCC[C@H]1C=N2	5.92	0.0215	0.275	–	0.0428	31.5	22.9	0.0609	–	–	0.393	0.0292	0.0367	0.0149	0.0443	0.0337	0.0303	–
Cn1c(-c2ccccc2)cc2c3ccsc3c3ccsc3c21	> 100	–	> 100	> 100	> 100	> 100	> 100	> 100	> 100	> 100	–	–	–	–	–	–	–	–
O=C1/C(=C/c2ccccc2O)N=C(c2ccccc2)N1c1nc2ccccc2s1	52.1	> 100	> 100	> 100	–	> 100	17.2	> 100	69.2	56.4	–	–	–	–	–	–	–	–
CCOC(=O)NC(NC1=NCCS1)(C(=O)OCC)C(F)(F)F (stereo not given)	> 100	> 100	> 100	> 100	–	> 100	> 100	> 100	> 100	> 100	–	–	–	–	–	–	–	–
CCOC(=O)C(Cl)(NC(=O)c1c(F)c(F)c(F)c(F)c1F)C(F)(F)F (stereo not given)	> 100	> 100	75.3	> 100	> 100	> 100	54.7	> 100	> 100	–	–	–	–	–	–	–	–	–
COc1ccc2oc(OC)c(CC=C(C)C)c(=O)c2c1C	> 100	> 100	–	> 100	> 100	–	> 100	> 100	> 100	> 100	–	–	–	–	–	–	–	–
N=c1c2c(-c3ccccc3)c[nH]c2ncn1N	> 100	> 100	> 100	> 100	> 100	> 100	> 100	> 100	> 100	–	–	–	–	–	–	–	–	–
Cc1ccc(-n2[nH]nc(C#N)c2=O)cc1	> 100	> 100	–	> 100	> 100	> 100	> 100	> 100	> 100	> 100	–	–	–	–	–	–	–	–
CCCCCCCCCCCCCC[n+]1ccc2c(C)c3c(c(C)c2c1)c1cc(O)ccc1n3CC	32.3	–	1.32	2.06	1.46	1.07	2	1.94	–	1.59	5.13	0.347	0.301	0.339	0.272	0.42	0.408	0.496
CC(C)C1=CCC2C(=C1)CCC1C(C)(C(=O)O)CCCC21C (stereo not given) (tested in a mixture with another compound)	> 100	> 100	> 100	> 100	> 100	> 100	> 100	> 100	> 100	–	–	–	–	–	–	–	–	–
O=c1[nH]c(Nc2cc(Cl)cc(Cl)c2)nc2nc[nH]c12	> 75	> 75	> 75	> 75	> 75	> 75	–	> 75	> 75	> 75	–	–	–	–	–	–	–	–
CN(C)c1ccccc1CN1CCCN(Cc2ccccc2N(C)C)C1c1ccncc1	58	–	14.8	28.1	34.6	33	32.5	30.3	29.6	28.5	–	–	–	–	–	–	–	–
O=C(O)c1cn2c3c(cc(N4CCN(CCO)CC4)cc3c1=O)SCC2	> 100	> 100	> 100	> 100	–	> 100	94.2	> 100	> 100	> 100	–	–	–	–	–	–	–	–
COC(=O)C1=C(O)C(C(=O)OC)[C@]2(O)[C@H](C(=O)OC)[C@H]1C[C@@H](c1c(Cl)cccc1Cl)[C@H]2C(=O)OC (stereo not given in full)	7.01	–	14	5.99	6.99	30.4	–	10.8	12.3	6.55	–	–	–	–	–	–	–	–
Cc1cccnc1/N=C/c1c(O)n(C)c(=O)[nH]c1=O	–	–	> 100	> 100	> 100	> 100	> 100	> 100	> 100	> 100	–	–	–	–	–	–	–	–
COc1ccc(C(SCCO)(c2ccccc2)c2ccccc2)cc1	34.2	64.8	25.4	–	32.4	31.4	34.4	37.9	25	27.5	–	–	–	–	–	–	–	–
C/C(=C/C(=O)Nn1c(Cc2ccccc2)n[nH]c1=O)C(=O)O	> 100	> 100	–	> 100	> 100	> 100	> 100	> 100	> 100	> 100	–	–	–	–	–	–	–	–
N#C/C(=C\c1cc(Cl)cc(Cl)c1)c1ccccn1	> 100	> 100	–	> 100	48.7	> 100	> 100	> 100	> 100	> 100	–	–	–	–	–	–	–	–
COC(=O)/C=C/c1ccc2c(c1)CC1(C2)Cc2cc3c(cc2C1=O)CCC3 (stereo not given)	> 100	> 100	> 100	> 100	> 100	> 100	> 100	–	> 100	> 100	–	–	–	–	–	–	–	–

SMILES	TGI (NCI/ADR-RES ovarian) [µM]	TGI (CCRF-CEM leukemia) [µM]	TGI (HOP-92 NSCLC) [µM]	TGI (IGROV1 ovarian) [µM]	TGI (BT-549 breast) [µM]	TGI (OVCAR-4 ovarian) [µM]	TGI (NCI-H522 lung) [µM]	TGI (HOP-62 NSCLC) [µM]	TGI (MCF7 breast) [µM]	TGI (NCI-H460 lung) [µM]	GI50 (NCI/ADR-RES ovarian) [µM]	GI50 (NCI-H460 lung) [µM]	GI50 (HOP-92 NSCLC) [µM]	GI50 (BT-549 breast) [µM]	GI50 (OVCAR-4 ovarian) [µM]	GI50 (NCI-H522 lung) [µM]	GI50 (HOP-62 NSCLC) [µM]	GI50 (IGROV1 ovarian) [µM]
O=C(/C=C/c1ccc(O)c(O)c1)c1cc(O)cc(O)c1	47.7	–	26.8	27.5	24.7	22.2	3.73	36.6	12.7	–	–	–	–	–	–	–	–	–
Nc1[nH]c(=S)nc2snnc12	> 100	> 100	> 100	> 100	> 100	–	> 100	> 100	> 100	> 100	–	–	–	–	–	–	–	–
CCCCCCOP(=O)(OCCCCCC)C(NC(=O)OCC)(C(F)(F)F)C(F)(F)F	> 100	> 100	93.4	> 100	50.1	–	52.6	> 100	> 100	> 100	–	–	–	–	–	–	–	–
CCOC(=O)c1c(N2CCCC2)[nH]c(=O)c(C(c2ccco2)c2c(O)c(C(=O)OCC)c(N3CCCC3)[nH]c2=O)c1O	> 100	> 100	> 100	–	> 100	> 100	> 100	> 100	> 100	> 100	–	–	–	–	–	–	–	–
N#C/C(=C\NC(=S)c1ccncc1)c1nc2ccccc2s1	> 100	–	> 100	> 100	> 100	> 100	> 100	> 100	> 100	> 100	–	–	–	–	–	–	–	–
c1ccc2c(c1)ncn2C1CCCCO1 (stereo not given)	> 100	> 100	> 100	> 100	> 100	> 100	> 100	> 100	> 100	–	–	–	–	–	–	–	–	–
Cn1/c(=N\S(=O)(=O)c2ccccc2)n(S(=O)(=O)c2ccccc2)c2ccccc21	> 100	83.3	–	> 100	> 100	> 100	> 100	> 100	–	–	–	–	–	–	–	–	–	–
CN1CCC(CN2c3ccccc3Sc3ccccc32)CC1	–	35.9	17.6	30.4	–	30.5	28.3	32.2	–	28.5	–	–	–	–	–	–	–	–
CC(C)CC(NC(=O)OC(C)(C)C)C(=O)NC(CCC(=O)OCc1ccc([N+](=O)[O-])cc1)C(=O)OCc1ccc([N+](=O)[O-])cc1 (stereo not drawn) (Boc-Leu-Glu(ONb)-ONb; configuration not given here)	> 100	57.5	> 100	47.6	–	> 100	–	> 100	–	56.1	–	–	–	–	–	–	–	–
CN(C)c1ccc(C(Cc2ccc3ccccc3n2)Cc2ccc3ccccc3n2)cc1	–	–	6.91	> 100	–	–	> 100	> 100	–	> 100	–	3.14	2.19	–	–	3.4	5.84	2.57
CCOc1ccc(/C=N/[N+](C)(C)C)cc1OCC	> 10	> 10	> 10	> 10	> 10	> 10	> 10	> 10	> 10	–	–	–	–	–	–	–	–	–
CCOC(=O)c1ccc(C(=O)/C(C(C)=O)=C2\CCCN2C)n1C	> 100	> 100	–	> 100	> 100	> 100	> 100	> 100	> 100	> 100	–	–	–	–	–	–	–	–
CN1C(=O)[C@@H]2[C@@H]3c4ccccc4N(S(=O)(=O)C(F)(F)F)[C@@H]3c3[nH]c4ccccc4c3[C@@H]2C1=O	> 100	> 100	35.4	5.43	> 100	> 100	–	> 100	> 100	> 100	–	–	–	–	–	–	–	–
Cn1c2ccccc2c2c(=O)[nH]c(=O)[nH]c21	> 100	> 100	> 100	> 100	> 100	–	> 100	> 100	> 100	–	–	–	–	–	–	–	–	–
Fc1ccc2nc3n(c2c1)C(c1c(Cl)cccc1Cl)SC3 (stereo not given)	> 100	–	> 100	> 100	> 100	> 100	> 100	> 100	> 100	> 100	–	–	–	–	–	–	–	–
CCc1ccc2nc(-c3ccc(O)cc3)sc2c1	32.9	–	–	29.4	31.1	–	18.3	–	46.4	41.3	–	–	–	–	–	–	–	–
O=C/C=C/c1ccco1	> 100	> 100	> 100	> 100	> 100	> 100	> 100	> 100	> 100	–	–	–	–	–	–	–	–	–
CCSc1cc(=O)n(C)c(=O)n1C	> 100	> 100	> 100	–	> 100	> 100	> 100	> 100	> 100	> 100	–	–	–	–	–	–	–	–
O=C(/C=C/c1ccc(/C=C/C(=O)c2ccc(O)cc2)cc1)c1ccc(O)cc1	> 100	> 100	> 100	–	> 100	–	–	> 100	> 100	> 100	–	–	–	–	–	–	–	–
NC1CC2NC3CCCCC3NC2CC1N (stereo not given)	> 100	> 100	–	> 100	> 100	–	39.9	–	> 100	> 100	–	–	–	–	–	–	–	–
CCCCCCCCCCCCCC[S+](C)C	> 10	3.25	3.67	2.33	–	7.31	4.33	3.87	4.67	6.78	–	–	–	–	–	–	–	–
COC1(OC)CC(CO)(CNc2cc(Cl)nc(N)n2)C1	> 100	> 100	–	> 100	> 100	> 100	> 100	> 100	> 100	> 100	–	–	–	–	–	–	–	–
Cc1ccc(OC2CC(n3cnc4ncnc(Cl)c43)OC2Oc2ccc(C)cc2)cc1 (stereo not given)	64.9	–	> 100	55	> 100	> 100	> 100	90.2	29.9	> 100	–	–	–	–	–	–	–	–
